# Assay results taken from patent US12351565B2, “Aromatic compound and preparation method therefor and use thereof” (SHANGHAI JIANHE PHARMACEUTICAL & TECHNOLOGY CO. LTD., priority 2018, dated 2025).
# Counter-ions that a name gives are not always drawn. Like-named read-outs stand apart in the source and are kept apart here.
# Key:
# C57 mice [1] = experiment: Forced swimming experiment, oral administration to mice; type: in vivo; details: inhibition of immobility time, C57 mice; for 1 h inhibition rate: forced swimming 1 h after single oral (intragastric) 20 mg/kg; for 24 h inhibition rate: forced swimming 24 h after single oral (intragastric) 20 mg/kg
# Description: 1 h and 24 h after a single oral administration of 20 mg/kg, forced swimming experiments were then carried out to investigate the effects of different compounds on depression-like behavior in C57 mice.
# (§1) Experimental animals were 6-week aged C57 mice, male, C57 mice were purchased from Shanghai SLAC Laboratory Animal Co., Ltd., with a body weight of 20.45±0.19 g. Before the experiment, they arrived at the Animal Feeding Center of Shanghai Institute of Materia Medica, Chinese Academy of Sciences (Animal Production License: SCXK9[Shanghai]2004-0002, usage license: SYXK[Shanghai]2003-0029), and adapted for 3 days or more in animal facilities. They were bred at 6 animals/cage. The breeding environment was room temperature 23±0.2° C., with 12/12 hours alternation of day and night. Before the behavioral test, the animals should be moved to the behavioral test operation room 2 hours in advance to adapt to the environment and reduce their tension.
# Preparation of the test product: each test compound was accurately weighed and dissolved in 0.9% NaCl solution, mixed thoroughly, and prepared into 1 mg/ml and 2 mg/ml solutions respectively, and set aside.
# (§2) 24 hours before the administration, the mice were placed in a cylindrical tank to adapt to the aquatic environment for 10 min. On the day of the behavioral test, the animals were respectively administered intragastrically once at 1 h and 24 h before the behavioral test. The mice were placed individually into a cylindrical glass tank with a height of 30 cm and a diameter of 20 cm. The water depth in the tank was 15 cm, so that the animals could not escape from the glass tank and their feet and tails could not touch the bottom of the tank, the water temperature was 23° C.-25° C. A 6 minute video was taken after the mouse entered into water. Since most animals were very active in the first two minutes, the immobility time in the following 4 minute were calculated (criterion of immobility: the mouse stops struggling in the water, stays still and has small limbs movement to maintain balance or to keep a floating state).
# (§3) The antidepressant effect of a compound was evaluated by the ability of the compound to reduce the immobility time of the animal in the forced swimming test as compared with the blank group. Inhibition rate1 h(%)=immobility time(blank, 1 h)−immobility time(administration, 1 h)/immobility time(blank, 1 h)×100% Inhibition rate24h(%)=immobility time(blank, 24 h)−immobility time(administration, 24 h)/immobility time(blank, 24 h)×100%
# hERG potassium channel = biological target: T1, hERG potassium channel (Homo sapiens, UniProt Q12809); experiment: hERG potassium channel inhibition experiment (automatic patch clamp, CHO-hERG cells); type: cell-based; details: Qpatch, highest tested concentration 40 μM, read-out: IC50, blocking effect on the hERG potassium current
# T1 construct: expressed in transfected cells
# Description: Fully automatic patch clamps were used to test the blocking effect of the compounds of the present invention on the hERG potassium current on a stable cell line transfected with hERG potassium channels.
# CHO-hERG cells were cultured in 175 cm^2 culture flask. When the cell grew to 60-80% confluence, the culture medium was removed. The cells were washed with 7 ml PBS (Phosphate Buffered Saline) once, and then 3 ml Detachin was added to digest.
# After the digestion was completed, 7 ml culture medium was added to neutralize. The mixture was centrifuged, and after the supernatant was removed, 5 ml culture medium was added to resuspend to ensure the cell density was 2×10^6-5×10^6/ml.
# Single-cell high-impedance sealing and whole-cell mode formation were all automatically completed by using the Qpatch instrument. After the recording mode was obtained, the cell was clamped at −80 millivolts. Before +40 millivolt depolarization stimulation for 5 seconds was given, −50 millivolt pre-voltage for 50 millisecond was first given, then repolarized to −50 millivolt for 5 seconds, and then returned to −80 millivolt. This voltage stimulus was applied every 15 seconds. After recording for 2 min, extracellular fluid was given, and recording was conducted for 5 min, and then the dosing process started. The compound concentration started from the lowest test concentration, and each test concentration was given for 2.5 min. […] At least 3 cells per concentration (n≥3) were tested.
# 20 mM compound mother liquor was diluted with extracellular fluid. 5 μL of 20 mM compound mother liquor was taken and added into 2495 μL extracellular fluid, so that it was diluted 500 times to 40 μM, and was then serially diluted 3 times in an extracellular fluid containing 0.2% DMSO to obtain the final concentration to be tested.
# The highest tested concentration was 40 μM, and the concentrations were in order as follows: 40, 13.33, 4.44, 1.48, 0.49, 0.16 μM, totally 6 concentrations.
# Experimental data were analyzed by XLFit software.
# C57 mice [2] = experiment: Forced swimming experiment, intraperitoneal administration to mice; type: in vivo; details: Mus musculus, ip
# Description: The forced-swimming test is currently the most widely used classic method to evaluate the antidepressant effects of compounds in rodents. […] The time in immobile state of experimental animal is observed and recorded, which can be used to evaluate the effect of antidepressant compounds.
# 1 h and 24 h after a single intraperitoneal administration of 10 mg/kg, forced swimming tests were respectively carried out to investigate the effects of different compounds on depression-like behaviors of C57 mice.
# as §1, with “male, and” for “male,”
# Preparation of the test product: each test compound was accurately weighed and dissolved in 0.9% NaCl solution, mixed thoroughly, and prepared as a 1 mg/ml solution, set aside.
# as §2, with “intraperitoneally” for “intragastrically”
# as §3, with “group. The shorter the immobility time of the animal to be tested, the higher the inhibition rate and the stronger the antidepressant activity.” for “group.”, “rate24 h(%)=immobility” for “rate24h(%)=immobility”
# [3] = In vivo pharmacokinetic experiment in mice; details: C57 mice
# Description: Healthy male C57 mice were randomly divided into groups with 3 mice in each group, and the test compounds were administrated intragastrically or by intravenous injection. See Table 6 below for specific arrangements:
# (§4) Each test compound was dissolved in physiological saline to prepare a certain concentration of solution for administration.
# (§5) One day before administration, the mice were fasted and allowed to drink freely for 12-14 h. The mice were fed 4 h after administration.
# (§6) 0.030 mL of blood was took from each animal each time through the orbit, and anticoagulated with EDTAK2. The collection time points were as follows: in PO group, 5 min, 15 min, 30 min, 1 h, 2 h, 4 h, 6 h, 8 h, 24 h after administration of test substance; in IV group, 2 min, 5 min, 15 min, 30 min, 1 h, 2 h, 4 h, 6 h, 8 h, 24 h after administration of test substance. After blood samples were collected, they were placed on ice and centrifuged to separate the plasma within 30 minutes (centrifugation conditions: 5000 rpm, 10 minutes, 4° C.). The sample were stored at −80° C. before analysis.
# [4] = Distribution in mouse brain tissue; type: in vivo, C57 mice
# Description: Healthy male C57 mice were randomly divided into groups with 3 mice in each group, and the test compound was administrated intragastrically. See Table 10 below for specific arrangements:
# as §4, §5
# After the animals were bled, the brain tissue was collected. After washing, 50% ice methanol was added for homogenate at 1:4 (m/v). The collection time points was 10 min, 15 min, 30 min, 1 h, 2 h after administration of the test substance; 30.0 μL of tissue sample was taken (the sample was taken out from the refrigerator at −80° C., vortexed for 30 seconds after natural melting at room temperature) and added into a 1.5 mL centrifuge tube. 300.0 μL internal standard solution (30 ng/mL […] acetonitrile solution) was added, the mixture was vortex for 60 seconds and then centrifuged for 3 minutes (centrifugal force was 12000 rpm); 75 μL of the supernatant was taken and transferred to 96-well injection plate loaded with equal volume of water, shaken and mixed well, and subjected to LC-MS/MS analysis, wherein injection volume was 10 μL.
# [5] = In vivo pharmacokinetic experiment in rats; details: SD rats
# Description: Healthy male SD rats were randomly divided into groups with 3 rats in each group, and the test compounds were administrated intragastrically or by intravenous injection. See Table 8 below for specific arrangements:
# as §4
# as §6, with “One day before administration, the rats were fasted and allowed to drink freely for 12-14 h. The rats were fed 4 h after administration. 0.030 mL” for “0.030 mL”, “anticoagulated with EDTAK2 anticoagulation. The collection” for “anticoagulated with EDTAK2. The collection”, “group, 5 min, 10 min, 15” for “group, 5 min, 15”
# [6] = 1 h, read-out: 1 h inhibition rate
# [7] = 24 h, read-out: 24 h inhibition rate
# [8] = male, mouse, iv, 5 mg/kg i.v., plasma
# [9] = male, mouse, po, 20 mg/kg p.o., plasma
# [10] = male, rat, iv, 10 mg/kg i.v., plasma
# [11] = male, rat, po, 10 mg/kg p.o., plasma
# [12] = male, rat, po, 100 mg/kg p.o., plasma
# T1 sequence (Q12809 whole entry): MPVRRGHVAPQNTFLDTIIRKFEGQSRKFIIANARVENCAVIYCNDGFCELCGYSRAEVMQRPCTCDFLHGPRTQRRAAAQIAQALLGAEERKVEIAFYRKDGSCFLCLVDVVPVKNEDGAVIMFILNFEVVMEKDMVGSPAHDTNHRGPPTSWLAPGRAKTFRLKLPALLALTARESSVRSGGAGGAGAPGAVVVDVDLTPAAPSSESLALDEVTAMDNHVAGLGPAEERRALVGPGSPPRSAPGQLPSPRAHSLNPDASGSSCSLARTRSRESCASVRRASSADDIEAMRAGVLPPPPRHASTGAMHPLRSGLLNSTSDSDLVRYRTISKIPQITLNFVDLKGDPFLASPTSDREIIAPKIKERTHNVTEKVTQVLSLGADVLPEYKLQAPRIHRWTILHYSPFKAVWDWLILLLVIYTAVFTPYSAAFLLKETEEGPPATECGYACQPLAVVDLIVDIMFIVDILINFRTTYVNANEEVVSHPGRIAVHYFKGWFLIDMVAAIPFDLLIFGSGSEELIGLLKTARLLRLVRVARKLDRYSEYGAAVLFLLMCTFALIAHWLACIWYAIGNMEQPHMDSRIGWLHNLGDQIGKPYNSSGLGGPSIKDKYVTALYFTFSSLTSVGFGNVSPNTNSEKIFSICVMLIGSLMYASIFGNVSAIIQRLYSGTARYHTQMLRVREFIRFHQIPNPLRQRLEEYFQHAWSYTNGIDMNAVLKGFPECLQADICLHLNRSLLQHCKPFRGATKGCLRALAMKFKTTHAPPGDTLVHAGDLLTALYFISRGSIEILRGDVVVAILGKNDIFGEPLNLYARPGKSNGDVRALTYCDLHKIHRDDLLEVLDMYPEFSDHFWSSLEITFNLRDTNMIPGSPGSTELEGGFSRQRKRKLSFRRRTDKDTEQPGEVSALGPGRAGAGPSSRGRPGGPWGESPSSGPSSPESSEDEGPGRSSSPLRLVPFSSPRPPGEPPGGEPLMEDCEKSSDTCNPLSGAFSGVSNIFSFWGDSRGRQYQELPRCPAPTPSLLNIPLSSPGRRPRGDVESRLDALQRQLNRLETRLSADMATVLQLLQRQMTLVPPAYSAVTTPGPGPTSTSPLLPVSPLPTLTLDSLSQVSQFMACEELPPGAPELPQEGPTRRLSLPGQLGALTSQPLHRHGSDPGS
compound,measurement,setting,value
"Cl.NC1(c2cccc(F)c2F)CCCC(O)C1=O (stereo not shown) [Compound 44, 2-amino-2-(2,3-difluorophenyl)-6-hydroxycyclohexane-1-one hydrochloride]",1 h inhibition rate,C57 mice [1],27.3 ± 1.2%
same,24 h inhibition rate,C57 mice [1],22.3 ± 2.3%
same,IC50,hERG potassium channel,> 40 µM
same,inhibition in vivo at 10 mg/kg,C57 mice [2]; [6],36.5 ± 2.9%
same,inhibition in vivo at 10 mg/kg,C57 mice [2]; [7],53.5 ± 0.2%
"NC1(c2ccccc2C(F)(F)F)CCCC(O)C1=O (stereo not shown) [Compound 45, 2-amino-6-hydroxy-2-(2-(trifluoromethyl)phenyl)cyclohexane-1-one hydrochloride]",IC50,hERG potassium channel,> 40 µM
same,inhibition in vivo at 10 mg/kg,C57 mice [2]; [6],33 ± 4.1%
same,inhibition in vivo at 10 mg/kg,C57 mice [2]; [7],44.5 ± 2.2%
"Cl.N[C@@]1(c2ccc(C(F)(F)F)cc2)CCC[C@@H](O)C1=O [Compound 50, (2R,6R)-2-amino-6-hydroxy-2-(4-(trifluoromethyl)phenyl)cyclohexane-1-one hydrochloride]",AUC0-t,"[3]; 5 mg/kg i.v., plasma",3022 ngh/mL
same,AUC0-∞,"[3]; 5 mg/kg i.v., plasma",3075 ngh/mL
same,F,[3]; 20 mg/kg p.o. vs 5 mg/kg i.v.,112%
same,AUC0-t,"[3]; 20 mg/kg p.o., plasma",13548 ngh/mL
same,AUC0-∞,"[3]; 20 mg/kg p.o., plasma",13624 ngh/mL
same,MRT,[3]; [8],1.29 h
same,half-life,[3]; [8],1.67 h
same,clearance,"[3]; male, mouse, plasma, iv, 5 mg/kg i.v.",27.2 mL/min/kg
same,Vd,"[3]; male, mouse, plasma, iv, 5 mg/kg i.v., read-out: Vss",2.1 L/kg
same,Cmax,[3]; [9],8100 ng/mL
same,MRT,[3]; [9],2.49 h
same,Tmax,[3]; [9],6.6 min
same,half-life,[3]; [9],4.16 h
same,1 h inhibition rate,C57 mice [1],34.5 ± 3.1%
same,24 h inhibition rate,C57 mice [1],35.6 ± 3.6%
same,AUC0-∞,"[4]; C57 mouse brain tissue, 20 mg/kg p.o.",18509 ng·h/g
same,concentration at 10 min,"[4]; male, brain, po, C57 mouse, 20 mg/kg p.o. (intragastrically), 10 min",19400 ng/g
same,half-life,"[4]; male, po, C57 mouse brain tissue, 20 mg/kg p.o.",1.44 h
same,AUC0-t,"[5]; 10 mg/kg i.v., plasma",10976 ngh/mL
same,AUC0-∞,"[5]; 10 mg/kg i.v., plasma",11306 ngh/mL
same,F,[5]; 10 mg/kg p.o.,82.5%
same,AUC0-t,"[5]; 10 mg/kg p.o., plasma",9060 ngh/mL
same,AUC0-∞,"[5]; 10 mg/kg p.o., plasma",9533 ngh/mL
same,F,[5]; 100 mg/kg p.o.,77.8%
same,AUC0-t,"[5]; 100 mg/kg p.o., plasma",85478 ngh/mL
same,AUC0-∞,"[5]; 100 mg/kg p.o., plasma",87916 ngh/mL
same,MRT,[5]; [10],4.56 h
same,half-life,[5]; [10],4.84 h
same,clearance,"[5]; male, rat, plasma, iv, 10 mg/kg i.v.",14.8 mL/min/kg
same,Vd,"[5]; male, rat, plasma, iv, 10 mg/kg i.v., read-out: Vss",4.03 L/kg
same,Cmax,[5]; [11],3110 ng/mL
same,MRT,[5]; [11],6.29 h
same,Tmax,[5]; [11],0.31 h
same,half-life,[5]; [11],5.73 h
same,Cmax,[5]; [12],17300 ng/mL
same,MRT,[5]; [12],5.47 h
same,Tmax,[5]; [12],0.67 h
same,half-life,[5]; [12],4.86 h
"NC1(c2c(F)cc(F)cc2F)CCCC(O)C1=O (stereo not shown) [Compound 73, 2-amino-6-hydroxy-2-(2,4,6-trifluorophenyl)cyclohexane-1-one hydrochloride]",IC50,hERG potassium channel,> 40 µM
same,inhibition in vivo at 10 mg/kg,C57 mice [2]; [6],38.6 ± 6%
same,inhibition in vivo at 10 mg/kg,C57 mice [2]; [7],36.9 ± 3.9%
